# Measured values from patent US7074789B2, “Kinase inhibitors” (Amgen Inc., priority 1999, dated 2006).
# Where two headings read alike, the source gives them in different places.
# Assays:
# Assay type in all cases: biochemical
# EGFR = molecular target: T1, EGFR (Homo sapiens, UniProt P00533); experiment: Kinase inhibition assay (33P transfer), EGFR; details: Table 2, kinase inhibition class; read-out: EGFR-1
# T1 construct: Kinases are expressed as either kinase domains or full length constructs; made in house
# T1 sequence (P00533 25-1210, species assumed): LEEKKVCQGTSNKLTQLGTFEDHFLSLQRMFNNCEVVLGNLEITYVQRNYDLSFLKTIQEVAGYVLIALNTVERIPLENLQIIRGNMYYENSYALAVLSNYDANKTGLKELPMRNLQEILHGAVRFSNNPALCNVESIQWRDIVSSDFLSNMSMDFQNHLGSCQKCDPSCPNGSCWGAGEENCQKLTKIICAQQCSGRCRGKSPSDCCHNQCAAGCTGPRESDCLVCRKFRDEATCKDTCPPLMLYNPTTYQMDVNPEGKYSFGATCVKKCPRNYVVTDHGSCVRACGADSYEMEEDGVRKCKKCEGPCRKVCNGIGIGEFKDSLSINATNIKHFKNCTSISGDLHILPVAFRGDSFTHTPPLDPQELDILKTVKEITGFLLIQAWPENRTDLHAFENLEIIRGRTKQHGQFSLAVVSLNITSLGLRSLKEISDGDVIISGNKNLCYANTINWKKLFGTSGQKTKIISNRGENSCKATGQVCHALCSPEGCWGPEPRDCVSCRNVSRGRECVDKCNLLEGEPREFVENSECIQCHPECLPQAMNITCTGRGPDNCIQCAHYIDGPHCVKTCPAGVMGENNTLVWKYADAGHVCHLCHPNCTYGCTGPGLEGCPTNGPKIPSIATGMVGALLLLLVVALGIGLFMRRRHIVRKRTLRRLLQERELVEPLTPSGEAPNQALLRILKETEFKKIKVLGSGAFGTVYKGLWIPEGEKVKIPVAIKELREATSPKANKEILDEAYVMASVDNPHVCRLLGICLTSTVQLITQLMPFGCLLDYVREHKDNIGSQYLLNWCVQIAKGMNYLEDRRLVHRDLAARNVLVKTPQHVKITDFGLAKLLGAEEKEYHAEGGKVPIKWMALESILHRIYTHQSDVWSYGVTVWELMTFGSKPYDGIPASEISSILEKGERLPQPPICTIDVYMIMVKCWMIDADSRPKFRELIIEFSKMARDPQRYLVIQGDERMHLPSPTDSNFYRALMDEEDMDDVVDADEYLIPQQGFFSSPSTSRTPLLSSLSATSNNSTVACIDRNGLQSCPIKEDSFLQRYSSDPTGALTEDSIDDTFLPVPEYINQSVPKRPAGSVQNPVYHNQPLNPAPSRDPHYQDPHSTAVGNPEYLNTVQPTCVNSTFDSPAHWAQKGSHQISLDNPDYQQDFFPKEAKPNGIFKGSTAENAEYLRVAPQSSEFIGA
# Summary of the method: (§1)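 Kinase domains or full-length enzymes, GST- or polyHis-tagged, were expressed in E. coli or baculovirus High Five cells and affinity-purified. Transfer of 33PO4 from ATP onto plate-bound poly(Glu,Tyr) 4:1 or poly(Arg,Ser) 3:1 was counted by liquid scintillation after a 0.5% phosphoric acid wash. IC50 = concentration halving incorporation.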
# Zap-70 = molecular target: T2, Zap-70 (Homo sapiens, UniProt P43403); experiment: Kinase inhibition assay (33P transfer), Zap-70; details: read-out: Zap-1
# T2 construct: Kinases are expressed as either kinase domains or full length constructs; made in house
# T2 sequence (P43403 1-619): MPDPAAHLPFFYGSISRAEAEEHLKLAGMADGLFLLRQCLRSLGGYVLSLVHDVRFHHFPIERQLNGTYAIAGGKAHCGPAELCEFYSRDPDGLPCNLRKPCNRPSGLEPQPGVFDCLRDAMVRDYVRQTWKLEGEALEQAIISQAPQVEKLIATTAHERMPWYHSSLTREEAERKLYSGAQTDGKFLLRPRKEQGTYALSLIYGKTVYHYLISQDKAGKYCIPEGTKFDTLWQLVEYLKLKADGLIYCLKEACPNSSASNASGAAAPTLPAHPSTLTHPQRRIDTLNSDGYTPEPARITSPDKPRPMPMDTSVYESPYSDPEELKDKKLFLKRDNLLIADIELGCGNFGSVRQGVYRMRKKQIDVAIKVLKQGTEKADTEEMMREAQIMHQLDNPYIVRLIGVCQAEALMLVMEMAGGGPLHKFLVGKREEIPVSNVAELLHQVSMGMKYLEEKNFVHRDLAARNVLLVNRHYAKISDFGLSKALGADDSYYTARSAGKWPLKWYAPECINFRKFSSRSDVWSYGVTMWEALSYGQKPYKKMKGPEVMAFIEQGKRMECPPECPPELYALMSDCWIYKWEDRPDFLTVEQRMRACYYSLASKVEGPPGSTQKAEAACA
# Summary of the method: (§2)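 Measured by scintillation: radiolabelled phosphate added by tagged recombinant kinases to poly(Glu,Tyr) 4:1 or poly(Arg,Ser) 3:1 attached to microtiter wells, counted once free label was washed away with 0.5% phosphoric acid.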
# AKT = molecular target: T3, AKT (Homo sapiens, UniProt Q9Y243); experiment: Kinase inhibition assay (33P transfer), AKT; details: Table 2, kinase inhibition class; read-out: AKT3-1
# T3 construct: Kinases are expressed as either kinase domains or full length constructs; made in house
# T3 sequence (Q9Y243 whole entry, the tested form may be a part): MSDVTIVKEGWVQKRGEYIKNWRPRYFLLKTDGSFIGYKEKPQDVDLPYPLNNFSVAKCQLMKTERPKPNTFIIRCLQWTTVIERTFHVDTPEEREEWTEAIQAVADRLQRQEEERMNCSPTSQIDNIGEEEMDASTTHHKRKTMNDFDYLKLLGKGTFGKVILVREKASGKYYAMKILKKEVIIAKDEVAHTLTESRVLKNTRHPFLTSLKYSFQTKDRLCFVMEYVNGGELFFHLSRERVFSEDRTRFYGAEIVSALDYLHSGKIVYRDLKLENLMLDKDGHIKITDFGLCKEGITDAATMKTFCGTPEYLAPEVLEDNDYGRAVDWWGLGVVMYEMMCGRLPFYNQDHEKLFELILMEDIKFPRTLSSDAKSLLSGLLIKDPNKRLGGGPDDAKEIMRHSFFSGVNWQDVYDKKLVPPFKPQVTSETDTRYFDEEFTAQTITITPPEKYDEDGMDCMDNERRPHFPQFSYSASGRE
# Summary of the method: as §2
# Tek = molecular target: T4, Tek (Homo sapiens, UniProt Q02763); experiment: Kinase inhibition assay (33P transfer), Tek; details: read-out: Tek-1
# T4 construct: Kinases are expressed as either kinase domains or full length constructs; made in house
# Description: The inhibitor compounds described herein are screened in the following manner. Kinases suitable for use in the following protocol to determine kinase activity of the compounds described herein include, -but are not limited to: Lck, Lyn, Src, Fyn, Syk, Zap-70, Itk, Tec, Btk, EGFR, ErbB2, Kdr, Flt-1, Flt-3, Tek, c-Met, InsR, and AKT.
# Kinases are expressed as either kinase domains or full length constructs fused to glutathione S-transferase (GST) or polyHistidine tagged fusion proteins in either E. colior Baculovirus-High Five expression systems. They are purified to near homogeneity by affinity chromatography essentially as previously described (Lehr et al., 1996; Gish et al., 1995). In some instances, kinases are co-expressed or mixed with purified or partially purified regulatory polypeptides prior to measurement of activity.
# Kinase activity and inhibition are measured essentially by established protocols (Braunwalder et al., 1996). Briefly, The transfer of ^33PO4 from ATP to the synthetic substrates poly(Glu, Tyr) 4:1 or poly(Arg, Ser) 3:1 attached to the bioactive surface of microtiter plates serves as the basis to evaluate enzyme activity. After an incubation period, the amount of phosphate transferred is measured by first washing the plate with 0.5% phosphoric acid, adding liquid scintillant, and then counting in a liquid scintillation detector. The IC50 is determined by the concentration of compound that causes a 50% reduction in the amount of […] incorporated onto the substrate bound to the plate.
# Lck = molecular target: T5, Lck (Homo sapiens, UniProt P06239); experiment: Kinase inhibition assay (33P transfer), Lck; details: read-out: Lck-1
# T5 construct: Kinases are expressed as either kinase domains or full length constructs; made in house
# T5 sequence (P06239 whole entry, species assumed, the tested form may be a part): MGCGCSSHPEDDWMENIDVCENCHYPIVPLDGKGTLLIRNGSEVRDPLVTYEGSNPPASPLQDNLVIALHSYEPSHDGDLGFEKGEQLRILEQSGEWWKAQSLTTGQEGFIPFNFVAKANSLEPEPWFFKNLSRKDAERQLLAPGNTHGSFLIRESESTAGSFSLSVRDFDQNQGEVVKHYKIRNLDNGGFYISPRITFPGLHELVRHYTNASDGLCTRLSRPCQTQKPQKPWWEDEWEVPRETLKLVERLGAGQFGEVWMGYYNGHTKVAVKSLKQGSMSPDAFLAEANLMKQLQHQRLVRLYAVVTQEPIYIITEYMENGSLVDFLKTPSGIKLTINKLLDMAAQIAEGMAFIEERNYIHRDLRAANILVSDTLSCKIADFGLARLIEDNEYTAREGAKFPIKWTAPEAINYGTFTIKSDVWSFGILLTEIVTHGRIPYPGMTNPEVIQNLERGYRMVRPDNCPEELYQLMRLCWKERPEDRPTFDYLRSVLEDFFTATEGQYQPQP
# Summary of the method: as §2
# Kdr = molecular target: T6, Kdr (Homo sapiens, UniProt P35968); experiment: Kinase inhibition assay (33P transfer), Kdr; details: read-out: KDR-1
# T6 construct: Kinases are expressed as either kinase domains or full length constructs; made in house
# T6 sequence (P35968 20-1356, species assumed): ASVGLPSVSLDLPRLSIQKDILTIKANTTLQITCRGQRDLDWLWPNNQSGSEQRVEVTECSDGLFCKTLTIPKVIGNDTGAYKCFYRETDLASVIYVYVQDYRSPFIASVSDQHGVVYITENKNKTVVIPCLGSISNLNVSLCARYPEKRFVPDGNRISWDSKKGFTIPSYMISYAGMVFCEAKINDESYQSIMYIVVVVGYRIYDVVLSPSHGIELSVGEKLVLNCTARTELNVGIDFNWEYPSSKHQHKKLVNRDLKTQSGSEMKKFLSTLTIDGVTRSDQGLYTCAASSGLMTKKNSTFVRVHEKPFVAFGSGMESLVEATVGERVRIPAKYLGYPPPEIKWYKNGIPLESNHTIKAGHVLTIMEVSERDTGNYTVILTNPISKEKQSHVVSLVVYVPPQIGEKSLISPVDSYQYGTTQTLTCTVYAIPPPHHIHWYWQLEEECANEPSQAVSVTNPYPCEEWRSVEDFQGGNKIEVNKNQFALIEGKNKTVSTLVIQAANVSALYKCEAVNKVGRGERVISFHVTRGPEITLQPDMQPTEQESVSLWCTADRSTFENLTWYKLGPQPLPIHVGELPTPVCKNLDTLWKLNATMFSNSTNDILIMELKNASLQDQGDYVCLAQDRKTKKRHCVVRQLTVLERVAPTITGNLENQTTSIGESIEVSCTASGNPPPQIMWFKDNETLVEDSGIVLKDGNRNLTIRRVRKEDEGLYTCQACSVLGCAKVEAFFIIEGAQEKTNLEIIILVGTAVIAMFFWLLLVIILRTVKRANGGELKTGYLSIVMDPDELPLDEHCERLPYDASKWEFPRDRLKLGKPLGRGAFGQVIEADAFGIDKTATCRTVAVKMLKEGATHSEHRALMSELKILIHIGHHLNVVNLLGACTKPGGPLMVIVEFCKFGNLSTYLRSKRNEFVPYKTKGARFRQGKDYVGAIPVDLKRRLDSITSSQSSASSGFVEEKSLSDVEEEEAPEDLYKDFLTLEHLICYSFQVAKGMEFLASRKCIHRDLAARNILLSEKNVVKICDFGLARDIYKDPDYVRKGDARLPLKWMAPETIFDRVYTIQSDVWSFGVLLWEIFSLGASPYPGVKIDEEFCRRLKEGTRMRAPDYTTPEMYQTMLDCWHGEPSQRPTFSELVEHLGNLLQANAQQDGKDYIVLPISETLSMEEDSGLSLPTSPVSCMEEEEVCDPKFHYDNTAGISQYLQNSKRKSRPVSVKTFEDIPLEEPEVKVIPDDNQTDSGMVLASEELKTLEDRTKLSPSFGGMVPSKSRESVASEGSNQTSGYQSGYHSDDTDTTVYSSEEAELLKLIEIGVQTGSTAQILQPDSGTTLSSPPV
# Summary of the method: as §2
# c-Met = molecular target: T7, c-Met (Homo sapiens, UniProt P08581); experiment: Kinase inhibition assay (33P transfer), c-Met; details: Table 2, kinase inhibition class; read-out: Met-1
# T7 construct: Kinases are expressed as either kinase domains or full length constructs; made in house
# T7 sequence (P08581 25-1390): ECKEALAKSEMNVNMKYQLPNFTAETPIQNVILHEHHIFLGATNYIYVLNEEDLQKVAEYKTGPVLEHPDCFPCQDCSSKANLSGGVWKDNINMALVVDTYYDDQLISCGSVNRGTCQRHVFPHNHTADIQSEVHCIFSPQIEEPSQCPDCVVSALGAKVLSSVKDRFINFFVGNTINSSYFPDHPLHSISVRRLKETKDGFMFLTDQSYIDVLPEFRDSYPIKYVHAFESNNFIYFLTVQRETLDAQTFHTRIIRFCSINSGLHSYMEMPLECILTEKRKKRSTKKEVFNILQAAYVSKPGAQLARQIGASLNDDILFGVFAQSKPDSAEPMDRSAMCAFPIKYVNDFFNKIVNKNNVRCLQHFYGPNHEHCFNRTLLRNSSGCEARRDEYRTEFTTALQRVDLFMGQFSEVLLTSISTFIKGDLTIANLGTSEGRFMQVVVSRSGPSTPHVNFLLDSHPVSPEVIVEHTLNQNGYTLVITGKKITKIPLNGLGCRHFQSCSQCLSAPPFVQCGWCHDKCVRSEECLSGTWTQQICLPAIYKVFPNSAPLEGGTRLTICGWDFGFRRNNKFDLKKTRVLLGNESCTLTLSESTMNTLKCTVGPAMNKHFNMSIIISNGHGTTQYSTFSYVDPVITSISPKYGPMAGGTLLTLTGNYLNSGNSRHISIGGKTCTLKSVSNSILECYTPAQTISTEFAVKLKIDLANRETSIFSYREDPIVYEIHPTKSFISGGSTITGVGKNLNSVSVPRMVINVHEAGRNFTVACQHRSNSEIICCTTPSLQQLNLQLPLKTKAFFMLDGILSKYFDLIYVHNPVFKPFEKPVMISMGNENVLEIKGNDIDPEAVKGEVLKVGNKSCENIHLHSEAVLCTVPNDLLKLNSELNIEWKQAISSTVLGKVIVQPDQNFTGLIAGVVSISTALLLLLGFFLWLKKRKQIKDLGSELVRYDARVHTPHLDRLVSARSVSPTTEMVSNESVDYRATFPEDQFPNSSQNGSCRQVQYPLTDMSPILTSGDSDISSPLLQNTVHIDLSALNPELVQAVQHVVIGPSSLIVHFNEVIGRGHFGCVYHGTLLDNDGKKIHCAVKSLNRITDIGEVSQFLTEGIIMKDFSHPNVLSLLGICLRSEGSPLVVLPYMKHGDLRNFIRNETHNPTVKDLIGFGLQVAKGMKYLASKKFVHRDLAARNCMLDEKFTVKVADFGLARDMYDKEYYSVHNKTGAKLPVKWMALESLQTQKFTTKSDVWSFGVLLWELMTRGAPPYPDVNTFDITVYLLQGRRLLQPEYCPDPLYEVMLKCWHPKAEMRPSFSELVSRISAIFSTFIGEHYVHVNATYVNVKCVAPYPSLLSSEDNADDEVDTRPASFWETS
# Summary of the method: as §1
# Itk = molecular target: T8, Itk (Homo sapiens, UniProt Q08881); experiment: Kinase inhibition assay (33P transfer), Itk; details: read-out: Itk-1
# T8 construct: Kinases are expressed as either kinase domains or full length constructs; made in house
# T8 sequence (Q08881 1-620): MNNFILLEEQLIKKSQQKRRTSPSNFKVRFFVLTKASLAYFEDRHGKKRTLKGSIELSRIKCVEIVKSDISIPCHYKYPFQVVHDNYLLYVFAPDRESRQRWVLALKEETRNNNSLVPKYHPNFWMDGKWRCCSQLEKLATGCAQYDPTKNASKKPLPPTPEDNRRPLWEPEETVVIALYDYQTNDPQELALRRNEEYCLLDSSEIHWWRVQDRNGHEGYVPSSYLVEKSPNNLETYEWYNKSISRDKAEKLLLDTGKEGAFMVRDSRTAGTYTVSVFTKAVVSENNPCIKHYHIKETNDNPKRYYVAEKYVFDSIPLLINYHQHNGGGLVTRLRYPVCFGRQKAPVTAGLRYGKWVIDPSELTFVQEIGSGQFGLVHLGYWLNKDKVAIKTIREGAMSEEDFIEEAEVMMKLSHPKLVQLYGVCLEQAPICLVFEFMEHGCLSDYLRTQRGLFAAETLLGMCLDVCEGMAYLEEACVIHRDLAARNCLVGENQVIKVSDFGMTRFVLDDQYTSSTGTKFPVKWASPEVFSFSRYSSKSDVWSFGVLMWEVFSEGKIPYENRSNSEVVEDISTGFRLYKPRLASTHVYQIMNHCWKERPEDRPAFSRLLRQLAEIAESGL
# Summary of the method: as §1
SMILES,IC50 (EGFR) [µM],IC50 (Zap-70) [µM],IC50 (AKT) [µM],IC50 (Tek) [µM],IC50 (Lck) [µM],IC50 (Kdr) [µM],IC50 (c-Met) [µM],IC50 (Itk) [µM],IC50 (Zap-70; Table 3) [µM],IC50 (Lck; Table 3) [µM],IC50 (Kdr; Table 3) [µM],IC50 (Itk; Table 3) [µM]
COc1cc(Nc2ncnc(-n3c(NCCc4cccnc4)nc4ccccc43)n2)cc(OC)c1OC [Compound 947],> 9.03,> 9.03,> 9.03,> 9.03,> 9.03,< 0.802,> 9.03,4.81 to 7.02,,,,
O=c1[nH]c2ccccc2n1-c1ncnc(Nc2cnc3ccccc3c2)n1 [Compound 508],> 12.7,> 12.7,> 12.7,6.75 to 9.85,1.13 to 6.75,1.13 to 6.75,> 12.7,6.75 to 9.85,,,,
CC(C)(C)OC(=O)NCc1ccc(Nc2ncnc(Nc3cc(-c4ccco4)n[nH]3)n2)cc1 [Compound 431],0.892 to 5.35,,5.35 to 7.8,5.35 to 7.8,,,> 10,,> 10,7.8 to 10,0.892 to 5.35,5.35 to 7.8
CC(C)(C)c1cc(Nc2ncnc(Nc3cccc(CC(=O)O)c3)n2)[nH]n1 [Compound 979],1.09 to 6.53,> 12.2,> 12.2,> 12.2,> 12.2,6.53 to 9.53,1.09 to 6.53,> 12.2,,,,
Nc1nc2ccccc2n1-c1ncnc(Nc2ccc(-c3cnco3)cc2)n1 [Compound 438],1.08 to 6.48,,6.48 to 9.45,1.08 to 6.48,,,1.08 to 6.48,,9.45 to 12.1,1.08 to 6.48,1.08 to 6.48,1.08 to 6.48
O=c1[nH]c2ccccc2n1-c1ncnc(Nc2ccc(Cl)cc2Cl)n1 [Compound 504],> 12.1,> 12.1,> 12.1,1.07 to 6.43,> 12.1,> 12.1,> 12.1,> 12.1,,,,
Nc1nc2ccccc2n1-c1ncnc(Nc2ccc(Cl)cc2)n1 [Compound 478],1.18 to 7.11,1.18 to 7.11,1.18 to 7.11,1.18 to 7.11,1.18 to 7.11,1.18 to 7.11,1.18 to 7.11,1.18 to 7.11,,,,
O=c1[nH]c2ccccc2n1-c1ncnc(Nc2cc(C(F)(F)F)cc(C(F)(F)F)c2)n1 [Compound 506],> 10.2,> 10.2,> 10.2,5.45 to 7.95,7.95 to 10.2,> 10.2,> 10.2,> 10.2,,,,
COc1ccccc1Nc1nc2ccccc2n1-c1ncnc(Nc2cc(OC)c(OC)c(OC)c2)n1 [Compound 398],> 9.01,,> 9.01,7.01 to 9.01,,,> 9.01,,> 9.01,> 9.01,4.8 to 7.01,> 9.01
O=C(O)Cc1ccc(Nc2ncnc(Nc3cc(-c4ccco4)n[nH]3)n2)cc1 [Compound 984],< 1.06,9.27 to 11.9,> 11.9,> 11.9,1.06 to 6.36,< 1.06,1.06 to 6.36,1.06 to 6.36,,,,
